Laboratory results: patent US20240182456A1, “2-((4-((S)-2-(4-CHLORO-2-FLUOROPHENYL)-2-METHYLBENZO[D][1,3]DIOXOL-4-YL)PIPERIDIN-1-YL)METHYL)-1-(((S)-OXETAN-2-YL)METHYL)-1H-IMIDAZOLE DERIVATIVES AS ACTIVATORS OF THE GLP1 RECEPTOR FOR THE TREATMENT OF OBESITY” (Novartis AG, priority 2021, published 2024)
Each block holds one compound with its values, some of them ahead of it.

Experiments:
[1] = Pharmacokinetics in C57BL/6 mice (i.v. and oral); conditions: for AUC(0-inf) / Vd / clearance / half-life / Cmax / Tmax: male, C57BL/6, mouse; for BAV: male C57BL/6 mice, 3 mg/kg oral dose vs 1 mg/kg i.v.
Experimental: Blood concentration versus time profiles were obtained from 2 groups of 3 male mice. The compound was administered intravenously (i.v.) by bolus injection (5 mL/kg) at a dose of 1 mg/kg in N-methyl-2-pyrrolidone (10%) and 4% bovine serum albumins (BSA) in phosphate-buffered saline (PBS) (90%) or orally administered at a dose of 3 mg/kg (10 mL/kg) as a homogenous suspension of Water (99.4%), Tween 80 (0.1%) and methylcellulose (0.5%). Following compound administration, blood (10 μL/time point) were collected by puncture of the tail vein into ethylenediaminetetraacetic (EDTA)-coated tubes, at 0.083 (i.v. only), 0.25, 0.5, 1, 3, 7, & 24 hours post dose.
Bioanalysis: An aliquot of 10 μL of blood sample and matrix calibration standards were added to a 96-well plate. The samples were extracted using a protein precipitation procedure with addition of 80 μL acetonitrile containing internal standard. The samples were vortexed and centrifuged at 3000 rpm for 5 minutes. A 70 μL aliquot of supernatant was transferred to a clean 96-well plate and a 70 μL of water was added to each well and vortexed. Samples were analyzed and quantified by LC-MS/MS using the conditions outlined below.
• Mass Spectrometer: AP16500+ • Liquid Chromatograph: Agilent 1290 for Compound 3; Shimadzu LC30 AD for Compound 5 • Autosampler (ALS): Agilent 1290 for Compound 3; Shimadzu SIL30AC for Compound 5
• LC Column Acquity BEH C18, 50×2.1 mm, 1.7 μm • Solvent A: • 5:95:0.1 (v:v:v) Acetonitrile:Water:Formic Acid for Compound 3 • 100:0.1 (v:v) Water:Formic acid for Compound 5 • Solvent B: • 50:50:0.1 (v:v:v) Acetonitrile:Methanol:Formic Acid for Compound 3 • 100:0.1 (v:v) Acetonitrile:Formic acid for Compound 5 • Injection Volume [μL]: 1 for Compound 5; 20 for Compound 3 • Column Oven Temp. [° C.]: 50 Compound 3; 40 for Compound 5 • ALS Temp. [° C.]: 5
• Ion Source: TIS • Polarity: Positive • Temperature: 550 • Gas 1: 55 • Gas 2: 55 • Curtain Gas: 20 • Ion Spray Voltage [V]: 5500 for Compound 5; 4500 for Compound 3 • CAD Gas: 9

[2] = biological target: human GLP1R (hGLP1R) (Homo sapiens, UniProt P43220); experiment: Human GLP1R cAMP agonist assay (GloSensor); format: cell-based; conditions: HEK293-SNAP-hGLP1R-GloSensor cells; for Emax: read-out: Emax mean; for EC50: intracellular cAMP, mean n=3 where SEM is given
Experimental: Compounds 1 to 31 were tested in the following cellular assays that measure the intracellular cAMP concentration, beta-arrestin recruitment and receptor internalization. The cAMP is generated by the activation of GLP1R. The cAMP data obtained is shown in Table 1 (where S.E.M. is included, mean n=3 independent experiments+/−S.E.M). Beta-arrestin is recruited upon activation of GLP1R and the data obtained are shown in Table 2 (mean n=2 independent experiments, +/−S.D). The extent to which the GLP1R is internalized into the cell and away from the plasma membrane following activation is also shown in Table 2 (mean n=2 independent experiments, +/−S.D). EC50 for each assay is defined as the concentration of the compound that leads to half of the maximum response (after baseline correction). Emax is defined as the maximum response observed for the test compound, normalized to the maximum response observed for the endogenous ligand (GLP1(7-36)) to GLP1R.
Human GLP1R cAMP Agonist Assay
The agonist activity of compounds was determined using the GloSensor™ cAMP Assay (Promega Corp.), which measures changes in the intracellular concentration of cAMP after ligand activation of GPCRs. The assay uses a biosensor encoded by pGloSensor™-22F cAMP plasmid (Promega, cat #E2301) with cAMP binding domains fused to a mutant form of Photinus pyralis luciferase. Binding to cAMP causes conformational changes that promote large increases in light output, which can be measured by a luminescence detector. HEK293-SNAP-hGLP1R-GloSensor cells stably overexpressing the human GLP1 receptor (hGLP1R) and pGloSensor™-22F were seeded in white 384-well poly-D-Lysine coated plates (Greiner Bio One, cat #781945) in CO2-independent media (Gibco cat #18045-088 with 1.0% FBS, 2 mM L-glutamine, penicillin and streptomycin) and incubated overnight at 37° C., 5% CO2 with humidity. The assay was started the following morning by adding an equal volume of CO2-independent media containing 4% v/v dilution of the GloSensor substrate (Promega, cat #E1291) to all wells. The cell plate was incubated at rt for 2 h in the dark. The Biomek 7 (Beckman Coulter) instrument was used for the liquid handling steps. To generate duplicate dose response curves, 3-fold serially diluted compounds were added in to the cell assay plate to a final volume of 60 μL with final concentrations ranging from 30 μM through 0.06 μM in CO2-independent media containing 0.1% BSA, 0.5 mM IBMX and 0.4% DMSO. In the same plate and assay buffer as the tested compounds, were EC100 control wells containing GLP1 (7-36) peptide (Bachem, cat #H-6795) at a final concentration of 2 nM and also EC0 control wells containing no peptide. This plate was incubated at rt in the dark for 12 min after adding the compounds to the cells. Luminescence was then measured with an Envision 2104 Multilabel reader with “TRF Light Unit, 337 nm” (PerkinElmer) using the Ultra-Sensitive protocol setting “384-well US luminescence detector” with the 384-well luminescence aperture, 0.1 seconds per well. cAMP activity was calculated as percent of the GLP1 (7-36) EC100 control wells: [(sample signal−mean EC0 signal)/(mean EC100 of GLP1 (7-36) signal−mean EC0 signal)}*100. Curve fitting for EC50 determinations was performed in the Helios module of the software package DAVID. The 4-parameter logistic model, Hill slope was used: y=Ainf+(A0−Ainf)/(1+(x/AC50)^Hill Slope) where y is the functional response; x is the compound concentration; A0 is the minimum value (at 0 dose); Ainf is the maximum value (at infinite dose); AC50 corresponds to the point of inflection (i.e. the point on the sigmoid shaped curve halfway between A0 and Ainf). The EC50 value was represented by the AC50 value calculated from Helios in μM. Emax is the maximal activity detected within the concentration range, derived from the fitted curve. […]

[3] = cAMP, normalized to GLP1(7-36) maximum response

Sequence of human GLP1R (hGLP1R) (P43220 24-463): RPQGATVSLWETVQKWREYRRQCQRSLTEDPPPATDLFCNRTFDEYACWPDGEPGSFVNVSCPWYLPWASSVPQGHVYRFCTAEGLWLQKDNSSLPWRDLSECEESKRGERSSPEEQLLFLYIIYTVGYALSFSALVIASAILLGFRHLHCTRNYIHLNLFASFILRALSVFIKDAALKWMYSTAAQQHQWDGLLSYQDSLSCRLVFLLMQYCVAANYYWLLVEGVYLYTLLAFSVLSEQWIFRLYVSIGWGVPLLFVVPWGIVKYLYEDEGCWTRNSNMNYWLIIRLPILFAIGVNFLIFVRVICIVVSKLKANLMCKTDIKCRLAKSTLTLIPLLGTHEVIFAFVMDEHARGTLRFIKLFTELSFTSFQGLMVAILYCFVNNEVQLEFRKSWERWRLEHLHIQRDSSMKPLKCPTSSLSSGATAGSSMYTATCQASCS

Compound: Cc1nc(CN2CCC(c3cccc4c3O[C@@](C)(c3ccc(Cl)cc3F)O4)CC2)n(C[C@@H]2CCO2)c1/C=C/C(=O)O [Compound 5]
AUC(0-inf) ([1]; whole blood, iv, 1 mg/kg): 5.02 ± 0.629 µM·h
Vd ([1]; whole blood, iv, 1 mg/kg): 0.604 ± 0.02 L/kg
clearance ([1]; whole blood, iv, 1 mg/kg): 5.76 ± 0.711 mL/min/kg
half-life ([1]; whole blood, iv, 1 mg/kg): 1.42 ± 0.121 h
AUC(0-inf) ([1]; whole blood, po, 3 mg/kg): 7.91 ± 0.764 µM·h
Cmax ([1]; whole blood, po, 3 mg/kg): 1060 ± 450 nM
Tmax ([1]; whole blood, po, 3 mg/kg): 1 h
half-life ([1]; whole blood, po, 3 mg/kg): 2.82 ± 0.74 h

Compound: C[C@]1(c2ccc(Cl)cc2F)Oc2cccc(C3CCN(Cc4nc(C(F)(F)F)c(/C=C/C(=O)O)n4C[C@@H]4CCO4)CC3)c2O1 [Compound 8]
BAV [1]: 60.9 ± 5.26%
AUC(0-inf) ([1]; in vivo, iv, 1 mg/kg): 3.75 ± 0.149 µM·h
Vd ([1]; in vivo, iv, 1 mg/kg): 1.65 ± 0.025 L/kg
clearance ([1]; in vivo, iv, 1 mg/kg): 7 ± 0.283 mL/min/kg
half-life ([1]; in vivo, iv, 1 mg/kg): 3.02 ± 0.168 h
AUC(0-inf) ([1]; in vivo, po, 3 mg/kg): 6.86 ± 0.591 µM·h
Cmax ([1]; in vivo, po, 3 mg/kg): 768 ± 112 nM
Tmax ([1]; in vivo, po, 3 mg/kg): 1 h
half-life ([1]; in vivo, po, 3 mg/kg): 2.7 ± 0.202 h

Compound: Cc1nc(CN2CCC(c3cccc4c3O[C@@](C)(c3ccc(Cl)cc3F)O4)CC2)n(C[C@@H]2CCO2)c1C(=O)O [Compound 3]
BAV [1]: 50.1 ± 19.4%
AUC(0-inf) ([1]; in vivo, iv, 1 mg/kg): 2.79 ± 1.35 µM·h
Vd ([1]; in vivo, iv, 1 mg/kg): 0.903 ± 0.282 L/kg
clearance ([1]; in vivo, iv, 1 mg/kg): 12.3 ± 4.78 mL/min/kg
half-life ([1]; in vivo, iv, 1 mg/kg): 1.28 ± 0.223 h
AUC(0-inf) ([1]; in vivo, po, 3 mg/kg): 3.74 ± 0.641 µM·h
Cmax ([1]; in vivo, po, 3 mg/kg): 1470 ± 354 nM
Tmax ([1]; in vivo, po, 3 mg/kg): 0.667 ± 0.289 h
half-life ([1]; in vivo, po, 3 mg/kg): 1.84 ± 0.8 h

Emax [2, 3]: 110%
EC50 [2]: 1.08 nM
Compound: Cc1nc(CN2CCC(c3cccc4c3O[C@@](C)(c3ccc(Cl)cc3F)O4)CC2)n(C[C@@H]2CCO2)c1C(O)CC(=O)O (mixture of isomers) [Compound C-28, 3-(2-((4-((S)-2-(4-chloro-2-fluorophenyl)-2-methylbenzo[d][1,3]dioxol-4-yl)piperidin-1-yl)methyl)-4-methyl-1-(((S)-oxetan-2-yl)methyl)-1H-imidazol-5-yl)-3-hydroxypropanoic acid]

Emax [2, 3]: 109%
EC50 [2]: 0.418 nM
Compound: Cc1nc(CN2CCC(c3cccc4c3O[C@@](C)(c3ccc(Cl)cc3F)O4)CC2)n(C[C@@H]2CCO2)c1C1CC1C(=O)O (stereo partly shown) [Compound C-9]

Emax [2, 3]: 110%
EC50 [2]: 8.63 nM
Compound: C[C@]1(c2ccc(Cl)cc2F)Oc2cccc(C3CCN(Cc4nc(-c5nnn[nH]5)c(C(F)(F)F)n4C[C@@H]4CCO4)CC3)c2O1 [Compound C-25, 4-((S)-2-(4-chloro-2-fluorophenyl)-2-methylbenzo[d][1,3]dioxol-4-yl)-1-((1-(((S)-oxetan-2-yl)methyl)-4-(1H-tetrazol-5-yl)-5-(trifluoromethyl)-1H-imidazol-2-yl)methyl)piperidine]

Emax mean [2, 3]: 106%
EC50 [2]: 1.2 nM
Compound: CC(Cc1cnc(CN2CCC(c3cccc4c3O[C@@](C)(c3ccc(Cl)cc3F)O4)CC2)n1C[C@@H]1CCO1)C(=O)O (single isomer, unassigned) [Compound C-17b]
